Here are results for 19 molecules from US20250195530A1, “POLQ INHIBITORS” (ASTRAZENECA AB, priority 2022, published 2025).

The structures appear in SMILES notation. Where two headings read alike, the source gives them in different places.

The subject of the assay is DLD-1 BRCA2−/− cells. Nature of the assay: Homologous recombination synthetic lethal inhibition of proliferation, DLD-1 BRCA2-/- (Cell Titre Glo 3D). The format is cell-based. Conditions: for IC50: Homo sapiens; for POLQ PD Prolif Lumin BRCA2 −/− mean pIC50: DLD-1 BRCA2 −/−. An excerpt:
This assay identifies anti-proliferative effects of POLQ compounds in the homologous recombination deficient colorectal cell line DLD-1 BRCA2−/− over 8-9 population doublings (7 days for DLD-1 and 12 days for DLD-1 BRCA2−/−). DLD1 BRCA2 wt are used as a control to detect cell toxic effects not specific to homologous recombination deficiency.
DLD-1 BRCA2−/− and DLD-1 cells were kept in continuous culture in Assay Medium (RPMI 1640 phenol red free (Sigma R7509) containing 1% GlutaMAX (Gibco 35050) and 10% Foetal Bovine Serum (Gibco 10270-106)). On the day of the assay cells in culture of ˜80-90% confluent were used. Cell monolayers were washed with 10 mL PBS, then removed and added 2 mL TrypLE Express (Gibco 12604). The cells with TrypLE Express were incubated for 5 minutes in cell culture incubator and then the detached cells resuspend in 15 mL Assay Medium. Cells were counted using a ViCell and the cell images were monitored for clumps of cells, ideally they should be single or <3 cell clusters. The cells were diluted to 3,000 cells/mL of DLD-1 BRCA2−/− and 1,500 cells/mL of DLD-1 in Assay Medium and 100 μL added per well of transparent bottomed, black, tissue culture-treated 96-well plates (CoStar, No. 3904) Assay Ready Plates. The Assay Ready Plates contain a 10 point 10 μM to 0.51 nM dose range with three-fold dilutions in DMSO with a final volume of 100 nL. The plates were incubated at 37° C. with 5% C02 for 6 days. On day 6, 100 μL/well of Assay Medium was added to duplicate Assay Ready Plates. 90 μL of culture medium was removed from the cell plates and replenished with the Assay Media and compounds from the duplicate Assay Ready Plates using the Bravo. The plates were further incubated at 37° C. with 5% CO2. On day 7 the plates containing DLD-1 and Cell Titre Glo 3D (Promega G9683) were equilibrated to room temperature, then 60 μL of Cell Titre Glo 3D was added per well and incubated on a shaking platform for 30 min. Plates were read on the Envision measuring luminescence for 1 second per well. On day 12 the plates containing DLD-1 BRCA2−/− cells and Cell Titre Glo 3D (Promega G9683) were equilibrated to room temperature, then 60 μL Cell Titre Glo 3D added per well and incubated on a shaking platform for 30 min. Plates were read on the Envision measuring luminescence for 1 second per well. The data was exported into a suitable software package (such as Genedata) to perform curve fitting analysis. Inhibition of cell proliferation was expressed as an IC5o value and was determined by calculation of the concentration of compound that was required to give a 50% reduction of the average maximum Total Intensity signal.

[1] abbreviates: DLD-1, proliferation, luminescence, taken as DLD-1 BRCA2-/-, read-out: POLQ PD Prolif Lumin (converted).
[2] abbreviates: DLD-1, first proliferation column (c5), DLD-1 BRCA2-/-, read-out: POLQ PD Prolif Lumin (converted).
Where [3] appears, read: DLD-1, first proliferation column, DLD-1 BRCA2-/-, read-out: POLQ PD Prolif Lumin (converted).

In the case of `CC(CCOc1ccc(-c2nc3c(OC4(C)CC4)ncnc3n2Cc2cc(F)cc(Cl)c2)c(Cl)c1)C(=O)O` (single isomer, unassigned) [Example T272, 4-(3-chloro-4-(9-(3-chloro-5-fluorobenzyl)-6-(1-methylcyclopropoxy)-9H-purin-8-yl)phenoxy)-2-methylbutanoic acid], for the setting “DLD-1, DLD-1 BRCA2-/- proliferation, column head only partly shown, read-out: POLQ PD Prolif Lumin (converted)”, the IC50 was 200 nM.
As for `CC(CCOc1ccc(-c2nc3c(OC4(C)CC4)ncnc3n2Cc2cc(F)cc(Cl)c2)c(Cl)c1)C(=O)O` (single isomer, unassigned) [Example T273, 4-(3-chloro-4-(9-(3-chloro-5-fluorobenzyl)-6-(1-methylcyclopropoxy)-9H-purin-8-yl)phenoxy)-2-methylbutanoic acid], where the note is “DLD-1 BRCA2-/- proliferation, column head only partly shown”, the “POLQ PD Prolif Lumin” value turned out to be 6.8.
As to `CC(CCOc1ccc(-c2nc3c(OC4(C)CC4)ncnc3n2Cc2cccc(C(F)(F)F)c2)c(Cl)c1)C(=O)O` (single isomer, unassigned) [Example T396, 4-(3-chloro-4-(6-(1-methylcyclopropoxy)-9-(3-(trifluoromethyl)benzyl)-9H-purin-8-yl)phenoxy)-2-methylbutanoic acid], under setting [1], the IC50 is 251 nM.
Still for that read-out and setting: under `CC(CCOc1ccc(-c2nc3c(OC4(C)CC4)ncnc3n2Cc2cccc(C(F)F)c2)c(Cl)c1)C(=O)O` (single isomer, unassigned) [Example T412, 4-(3-chloro-4-(9-(3-(difluoromethyl)benzyl)-6-(1-methylcyclopropoxy)-9H-purin-8-yl)phenoxy)-2-methylbutanoic acid] stands 251 nM.
For `CC(CCOc1ccc(-c2nc3c(OC4(C)CC4)ncnc3n2Cc2ccccc2C(F)F)c(Cl)c1)C(=O)O` (single isomer, unassigned) [Example T414, 4-(3-chloro-4-(9-(2-(difluoromethyl)benzyl)-6-(1-methylcyclopropoxy)-9H-purin-8-yl)phenoxy)-2-methylbutanoic acid], the IC50 under setting [1] is 1580 nM.
Same read-out and setting: under `CC(CCCOc1ccc(-c2nc3c(OC4(C)CC4)ncnc3n2Cc2cccc(Cl)c2)c(Cl)c1)C(=O)O` (single isomer, unassigned) [Example T438, 5-(3-chloro-4-(9-(3-chlorobenzyl)-6-(1-methylcyclopropoxy)-9H-purin-8-yl)phenoxy)-2-methylpentanoic acid] stands 126 nM; under `CC(CCCOc1cccc(-c2nc3c(OC4(C)CC4)ncnc3n2Cc2cccc(Cl)c2)c1Cl)C(=O)O` (single isomer, unassigned) [Example T443, 5-(2-chloro-3-(9-(3-chlorobenzyl)-6-(1-methylcyclopropoxy)-9H-purin-8-yl)phenoxy)-2-methylpentanoic acid], 79.4 nM; under `COc1cc(Cl)cc(Cn2c(-c3ccc(OCCC(C)C(=O)O)cc3Cl)nc3c(OC4(C)CC4)ncnc32)c1` (single isomer, unassigned) [Example T446, 4-(3-chloro-4-(9-(3-chloro-5-methoxybenzyl)-6-(1-methylcyclopropoxy)-9H-purin-8-yl)phenoxy)-2-methylbutanoic acid], 316 nM.
The same measure, in the same setting: under `COc1cccc(Cn2c(-c3ccc(OCCC(C)C(=O)O)cc3Cl)nc3c(OC4(C)CC4)ncnc32)c1` (single isomer, unassigned) [Example T455, 4-(3-chloro-4-(9-(3-methoxybenzyl)-6-(1-methylcyclopropoxy)-9H-purin-8-yl)phenoxy)-2-methylbutanoic acid] stands 1580 nM.
Consider `Cc1c(Cn2c(-c3ccc(OCCC(C)C(=O)O)cc3Cl)nc3c(OC4(C)CC4)ncnc32)cccc1C(F)(F)F` (single isomer, unassigned) [Example T534, 4-(3-chloro-4-(9-(2-methyl-3-(trifluoromethyl)benzyl)-6-(1-methylcyclopropoxy)-9H-purin-8-yl)phenoxy)-2-methylbutanoic acid], for which the IC50 under setting [2] was 3160 nM.
On to `Cc1ccnc(Cn2c(-c3ccc(OC4CCc5nccn5C4)cc3Cl)nc3c(OC4(C)CC4)ncnc32)c1` (single isomer, unassigned) [Example T536, 8-(2-chloro-4-((5,6,7,8-tetrahydroimidazo[1,2-a]pyridin-6-yl)oxy)phenyl)-6-(1-methylcyclopropoxy)-9-((4-methylpyridin-2-yl)methyl)-9H-purine], for which, under setting [2], the IC50 is 501 nM.
Still for that read-out and setting: as for `CC(CCOc1ccc(-c2nc3c(OC4(C)CC4)ncnc3n2Cc2cccc(C(C)(F)F)c2)c(Cl)c1)C(=O)O` (single isomer, unassigned) [Example T545, 4-(3-chloro-4-(9-(3-(1,1-difluoroethyl)benzyl)-6-(1-methylcyclopropoxy)-9H-purin-8-yl)phenoxy)-2-methylbutanoic acid], the figure is 1000 nM; as for `Cc1ccc(C)c(Cn2c(-c3ccc(OCCC(C)C(=O)O)cc3Cl)nc3c(OC4(C)CC4)ncnc32)c1` (single isomer, unassigned) [Example T572, 4-(3-chloro-4-(9-(2,5-dimethylbenzyl)-6-(1-methylcyclopropoxy)-9H-purin-8-yl)phenoxy)-2-methylbutanoic acid], 631 nM.
For the molecule `Cc1ccc(C)c(Cn2c(-c3ccc(OCCC(C)C(=O)O)cc3Cl)nc3c(OC4(C)CC4)ncnc32)c1` (single isomer, unassigned) [Example T573, 4-(3-chloro-4-(9-(2,5-dimethylbenzyl)-6-(1-methylcyclopropoxy)-9H-purin-8-yl)phenoxy)-2-methylbutanoic acid], the IC50 under setting [3] was 501 nM.
Still for that read-out and setting: under `CC(CCOc1ccc(-c2nc3c(OC4(C)CC4)ncnc3n2Cc2ccccc2C2CC2)c(Cl)c1)C(=O)O` (single isomer, unassigned) [Example T599, 4-(3-chloro-4-(9-(2-cyclopropylbenzyl)-6-(1-methylcyclopropoxy)-9H-purin-8-yl)phenoxy)-2-methylbutanoic acid] stands 631 nM.
Regarding `CC(CCOc1ccc(-c2nc3c(OC4(C)CC4)ncnc3n2Cc2ccccc2C2CC2)c(Cl)c1)C(=O)O` (single isomer, unassigned) [Example T600, 4-(3-chloro-4-(9-(2-cyclopropylbenzyl)-6-(1-methylcyclopropoxy)-9H-purin-8-yl)phenoxy)-2-methylbutanoic acid], the “POLQ PD Prolif Lumin” value (DLD-1 BRCA2-/-) is given as 6.3.
In the case of `CC(COc1cccc(-c2nc3c(OC4(C)CC4)ncnc3n2Cc2cc(Cl)ccc2F)c1Cl)CC(=O)O` (single isomer, unassigned) [Example U33, 4-(2-chloro-3-(9-(5-chloro-2-fluorobenzyl)-6-(1-methylcyclopropoxy)-9H-purin-8-yl)phenoxy)-3-methylbutanoic acid], under “DLD-1, DLD-1 BRCA2 −/−, mean, read-out: POLQ PD Prolif Lumin BRCA2 −/− mean pIC50 (converted)”, the IC50 was 15.8 nM.
As for `CC(COc1cccc(-c2nc3c(OC4(C)CC4)ncnc3n2Cc2cc(Cl)ccc2F)c1Cl)CC(=O)O` (single isomer, unassigned) [Example U34, 4-(2-chloro-3-(9-(5-chloro-2-fluorobenzyl)-6-(1-methylcyclopropoxy)-9H-purin-8-yl)phenoxy)-3-methylbutanoic acid], where the note is “mean”, the “POLQ PD Prolif Lumin BRCA2 −/− mean pIC50” value is on record as 7.5.
For the molecule `COc1ccc(F)cc1Cn1c(-c2cccc(OCC(C)CC(=O)O)c2Cl)nc2c(OC3(C)CC3)ncnc21` (single isomer, unassigned) [Example U80, 4-(2-chloro-3-(9-(5-fluoro-2-methoxybenzyl)-6-(1-methylcyclopropoxy)-9H-purin-8-yl)phenoxy)-3-methylbutanoic acid], the “POLQ PD Prolif Lumin BRCA2 −/− mean pIC50” value (mean) is 8.
